Measurements: US11498896B2 (The Broad Institute, Inc., priority 2014, dated 2022)

How the values were obtained:
human D2R/β-arrestin [1] = biological target: T1, human D2R/β-arrestin (Homo sapiens (Human), UniProt P14416); assay: β-arrestin agonist assay (PathHunter); type: cell-based; conditions: CHO-K1 cells expressing human D2R/β-arrestin; agonist mode
Description: The detection reagent (9.6 μL, Buffer:Emerald II:Galactor-Star in a 19:5:1 ratio, i.e., 14.06 mL:3.7 mL:0.74 mL=18.5 mL) was then added to the agonist plates.

human D2R/β-arrestin [2] = biological target: T1, human D2R/β-arrestin; assay: Gi/cAMP agonist assay (Lance Ultra cAMP, forskolin); type: cell-based; conditions: CHO-K1 cells expressing human D2R/β-arrestin; agonist mode, 2.5 μM forskolin
Description: Eu-cAMP tracer solution (10 μl, PerkinElmer, 360 μl of Tracer in 17.64 ml kit buffer) and ULight-anti-cAMP solution (10 μl, 120 μL antibody in 17.88 ml kit buffer) was then added to each well.

human D2R/β-arrestin [3] = biological target: T1, human D2R/β-arrestin; assay: cell-based; conditions: β-arrestin Antagonist, CHO-K1 cells expressing human D2R/β-arrestin; antagonist mode, quinpirole 130 nM
Description: Cells were prepared for assays by growing cultures for up to 2 weeks (from about 6-20 passages). A vial of frozen cells was thawed in a water bath held at 37° C. The cells were then transferred into a 50 ml tube with 10 ml growth media. The vial was rinsed with growth media and the contents transferred to the 50 ml tube. The 50 ml tube was centrifuged at 1200 rpm for 5 minutes at room temperature. […] When the cells reached about 90% confluence (approximately 3 days between passages), the cells were passaged and used for either the agonist or antagonist assays as described below.
The cells were prepared for β-arrestin assays as described above. The assays were performed using a PathHunter® β-Arrestin Detecting Kit (DiscoveRX). The cells were grown on 225 mm dishes, then washed once with 1×PBS (Cellgro), followed by digestion with 2.5 ml 1× Detachment reagent (DRX 92-0009) for approximately 2 minutes.

human D2R/β-arrestin [4] = biological target: T1, human D2R/β-arrestin; assay: cell-based; conditions: cAMP Antagonist, CHO-K1 cells expressing human D2R/β-arrestin; antagonist mode, 2.5 μM forskolin and 2.7 nM quinpirole

T1 sequence (P14416 whole entry): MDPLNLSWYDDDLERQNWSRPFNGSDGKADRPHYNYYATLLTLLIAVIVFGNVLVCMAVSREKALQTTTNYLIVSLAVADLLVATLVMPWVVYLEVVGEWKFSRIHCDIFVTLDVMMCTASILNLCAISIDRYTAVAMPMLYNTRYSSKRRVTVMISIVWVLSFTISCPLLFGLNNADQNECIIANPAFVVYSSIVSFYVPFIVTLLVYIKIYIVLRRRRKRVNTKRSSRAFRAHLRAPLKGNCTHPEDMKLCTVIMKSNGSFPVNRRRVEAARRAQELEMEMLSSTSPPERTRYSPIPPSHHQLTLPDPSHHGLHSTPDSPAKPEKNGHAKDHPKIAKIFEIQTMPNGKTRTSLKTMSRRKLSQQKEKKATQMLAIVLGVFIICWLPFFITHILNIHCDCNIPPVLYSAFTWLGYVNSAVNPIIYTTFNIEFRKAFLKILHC

EC50 (human D2R/β-arrestin [1]) [nM] | EC50 (human D2R/β-arrestin [2]) [nM] | IC50 (human D2R/β-arrestin [3]) [nM] | IC50 (human D2R/β-arrestin [4]) [nM] | Compound
100 to 1000 | < 100 | < 100 | > 30000 | CC1(Oc2ccccc2)CCN(CCOc2cccc3[nH]ccc23)CC1 [Compound 175, 4-(2-(4-methyl-4-phenoxypiperidin-1-yl)ethoxy)-1H-indole]
> 30000 | 1000 to 10000 | 1000 to 10000 | 100 to 1000 | CC(C)C1(Oc2ccc(Cl)cc2)CCN(CCOc2ccccc2C(F)(F)F)CC1 [Compound 192, 4-(4-chlorophenoxy)-4-isopropyl-1-(2-(2-(trifluoromethyl)phenoxy)ethyl)piperidine]
> 30000 | 100 to 1000 | 1000 to 10000 | 100 to 1000 | CNC(=O)C1(C)CCN(CCOc2ccccc2F)CC1 [Compound 200, 1-(2-(2-fluorophenoxy)ethyl)-N,4-dimethylpiperidine-4-carboxamide]
100 to 1000 | < 100 | 1000 to 10000 | > 30000 | CC1(Oc2ccc(Cl)cc2)CCN(CCOc2ccc(F)cc2)CC1 [Compound 149, 4-(4-chlorophenoxy)-1-(2-(4-fluorophenoxy)ethyl)-4-methylpiperidine]
> 30000 | > 30000 | 100 to 1000 | 100 to 1000 | OC(c1ccccc1)C1(O)CCN(CCOc2ccccc2C(F)(F)F)CC1 (centres unmarked) [Example 103, 4-(Hydroxy(phenyl)methyl)-1-(2-(2-(trifluoromethyl)phenoxy)ethyl) piperidin-4-ol]
> 30000 | < 100 | 100 to 1000 | 10000 to 30000 | CCc1ccccc1OCCN1CCC(C)(Oc2ccccc2)CC1 [Example 70, 1-(2-(2-Ethylphenoxy)ethyl)-4-methyl-4-phenoxypiperidine]
> 30000 | > 30000 | 10000 to 30000 | > 30000 | FC(F)(F)c1ccccc1OCCN1CCC2(CC1)CC2c1ccc(Cl)cc1 (centres unmarked) [Compound 216, 1-(4-chlorophenyl)-6-(2-(2-(trifluoromethyl)phenoxy)ethyl)-6-azaspiro[2.5]octane]
> 30000 | > 30000 | 1000 to 10000 | 1000 to 10000 | CC1(Oc2ccc(Cl)cc2)CCN(CCOc2ccc3ccc(=O)[nH]c3c2)C1 (centres unmarked) [Compound 25, 7-(2-(3-(4-chlorophenoxy)-3-methylpyrrolidin-1-yl)ethoxy)quinolin-2(1H)-one]
1000 to 10000 | < 100 | 1000 to 10000 | > 30000 | C#CC1(Oc2ccc(Cl)cc2)CCN(CCOc2ccccc2C(F)(F)F)CC1 [Compound 193, 4-(4-chlorophenoxy)-4-ethynyl-1-(2-(2-(trifluoromethyl)phenoxy)ethyl)piperidine]
100 to 1000 | < 100 | 10000 to 30000 | > 30000 | CC1(Oc2ccc(Cl)cc2)CCN(CCOc2cncs2)CC1 [Compound 161, 5-(2-(4-(4-chlorophenoxy)-4-methylpiperidin-1-yl)ethoxy)thiazole]
100 to 1000 | < 100 | > 30000 | > 30000 | CC1(Oc2ccc(Cl)cc2)CCN(CCOc2cccnc2)CC1 [Compound 182, 3-(2-(4-(4-chlorophenoxy)-4-methylpiperidin-1-yl)ethoxy)pyridine]
> 30000 | > 30000 | < 100 | < 100 | COc1cc2c(cc1O)C1Cc3ccc(O)c(OC)c3CN1CC2 (racemic) [D,L-Stepholidine, reference compound]
> 30000 | 1000 to 10000 | 1000 to 10000 | 1000 to 10000 | CC1(Oc2ccc(Cl)cc2)CCN(CCOc2ccncc2C(F)(F)F)CC1 [Compound 167, 4-(2-(4-(4-chlorophenoxy)-4-methylpiperidin-1-yl)ethoxy)-3-(trifluoromethyl)pyridine]
> 30000 | < 100 | 100 to 1000 | > 30000 | CC1(Oc2ccc(Cl)cc2)CCN(CCOc2cc(F)ccc2F)C1 (centres unmarked) [Compound 23, 3-(4-chlorophenoxy)-1-(2-(2,5-difluorophenoxy)ethyl)-3-methyl pyrrolidine]
> 30000 | < 100 | 100 to 1000 | < 100 | CC1(Oc2ccccn2)CCN(CCOc2ccccc2C(F)(F)F)CC1 [Example 105, 2-((4-methyl-1-(2-(2-(trifluoromethyl)phenoxy)ethyl)piperidin-4-yl)oxy) pyridine]
> 30000 | 100 to 1000 | 1000 to 10000 | > 30000 | Cc1ccc(OCCN2CCC(C)(Oc3ccc(Cl)cc3)C2)cc1 (centres unmarked) [Compound 16, 3-(4-Chlorophenoxy)-3-methyl-1-(2-(p-tolyloxy)ethyl)pyrrolidine]

EC50 (human D2R/β-arrestin [1]) [nM] | EC50 (human D2R/β-arrestin [2]) [nM] | IC50 (human D2R/β-arrestin [3]) [nM] | IC50 (human D2R/β-arrestin [4]) [nM] | Compound
> 30000 | 1000 to 10000 | > 30000 | > 30000 | CC1(Oc2ccc(Cl)cc2)CCN(CCn2c(=O)ccc3cccc(C(F)(F)F)c32)CC1 [Compound 172, 1-(2-(4-(4-chlorophenoxy)-4-methylpiperidin-1-yl)ethyl)-8-(trifluoromethyl)quinolin-2(1H)-one]
> 30000 | > 30000 | 1000 to 10000 | 100 to 1000 | COc1cc(F)ccc1OCCN1CCC(C)(Oc2ccc(Cl)cc2)CC1 [Compound 160, 4-(4-chlorophenoxy)-1-(2-(4-fluoro-2-methoxyphenoxy)ethyl)-4-methyl piperidine]
> 30000 | < 100 | 1000 to 10000 | 100 to 1000 | CC1(Oc2ccc(Cl)cc2)CCN(CCOc2ccc(F)cc2F)C1 (centres unmarked) [Compound 22, 3-(4-chlorophenoxy)-1-(2-(2,4-difluorophenoxy)ethyl)-3-methyl pyrrolidine]
> 30000 | > 30000 | 1000 to 10000 | 100 to 1000 | CC(C)Oc1cc(F)ccc1OCCN1CCC(C)(Oc2ccc(Cl)cc2)CC1 [Compound 191, 4-(4-chlorophenoxy)-1-(2-(4-fluoro-2-isopropoxyphenoxy)ethyl)-4-methylpiperidine]
> 30000 | > 30000 | 1000 to 10000 | 100 to 1000 | FC(F)(F)c1ccccc1OCCN1CCC2(CC1)Cc1ccccc1O2 [Compound 179, 1′-(2-(2-(trifluoromethyl)phenoxy)ethyl)-3H-spiro[benzofuran-2,4′-piperidine]]
> 30000 | > 30000 | 1000 to 10000 | 100 to 1000 | CC1CC(C)(Oc2ccccc2)CC(C)N1CCOc1ccccc1C(F)(F)F (centres unmarked) [Example 83, 2,4,6-Trimethyl-4-phenoxy-1-(2-(2-(trifluoromethyl)phenoxy)ethyl) piperidine]
< 100 | < 100 | > 30000 | > 30000 | CC1(Oc2ccc(Cl)cc2)CCN(CCOc2ccc3cccnc3c2)C1 (centres unmarked) [Compound 24]
> 30000 | > 30000 | 100 to 1000 | < 100 | CC1(Oc2ccc(Cl)cc2)CCCN(CCOc2ccccc2F)C1 (centres unmarked) [Example 98, 3-(4-Chlorophenoxy)-1-(2-(2-fluorophenoxy)ethyl)-3-methylpiperidine]
> 30000 | > 30000 | 10000 to 30000 | 1000 to 10000 | CC1(Oc2ccc(Cl)cc2)CCN(CCOc2ccc(C(F)(F)F)cc2)C1 (centres unmarked) [Compound 17, 3-(4-chlorophenoxy)-3-methyl-1-(2-(4-(trifluoromethyl)phenoxy)ethyl) pyrrolidine]
> 30000 | > 30000 | 10000 to 30000 | 1000 to 10000 | CC1(O)CCN(CCOc2ccc(C(F)(F)F)cc2)CC1 [Compound 132, 4-methyl-1-(2-(4-(trifluoromethyl)phenoxy)ethyl)piperidin-4-ol]
10000 to 30000 | < 100 | 100 to 1000 | 100 to 1000 | CC1(C(O)c2ccccc2)CCN(CCOc2ccccc2C(F)(F)F)CC1 (centres unmarked) [Example 107, (4-methyl-1-(2-(2-(trifluoromethyl)phenoxy)ethyl)piperidin-4-yl)(phenyl)methanol]
> 30000 | < 100 | 100 to 1000 | 1000 to 10000 | CC1(C(=O)NC2CC2)CCN(CC2COc3ccccc3O2)CC1 (single isomer, unassigned) [Compound 203a, N-cyclopropyl-1-((2,3-dihydrobenzo[b][1,4]dioxin-2-yl)methyl)-4-methylpiperidine-4-carboxamide]
> 30000 | > 30000 | 10000 to 30000 | 1000 to 10000 | CC1(Oc2ccc(Cl)cc2)CCCN(C(C)(C)COc2ccccc2)C1 (centres unmarked) [Example 108, 3-(4-Chlorophenoxy)-3-methyl-1-(2-methyl-1-phenoxypropan-2-yl)piperidine]
> 30000 | > 30000 | 100 to 1000 | < 100 | CC(C)C1(O)CCN(CCOc2ccccc2C(F)(F)F)CC1 [Compound 176, 4-isopropyl-1-(2-(2-(trifluoromethyl)phenoxy)ethyl)piperidin-4-ol]
100 to 1000 | < 100 | > 30000 | > 30000 | CC1(Oc2ccc(Cl)cc2)CCN(CC2COc3ccccc3O2)CC1 (centres unmarked) [Compound 142, 4-(4-chlorophenoxy)-1-((2,3-dihydrobenzo[b][1,4]dioxin-2-yl)methyl)-4-methylpiperidine]
> 30000 | > 30000 | 100 to 1000 | 100 to 1000 | FC(F)(F)c1ccccc1OCCN1CCC2(CC1)CCN2c1ccccc1 [Compound 113, 1-phenyl-7-(2-(2-(trifluoromethyl)phenoxy)ethyl)-1,7-diazaspiro[3.5]nonane]
